Test results published in article PMC4704819, “Honey Bee Allatostatins Target Galanin/Somatostatin-Like Receptors and Modulate Learning: A Conserved Function?” (PLoS ONE, 2016).
“Also recorded” adds a separate entry of the source. Where a SMILES comes first, the peptide text is derived from it. Bridges are numbered along the chain shown (N, C = ends).

Tested on: honey bees (Apis mellifera)
Experiment: Appetitive olfactory learning (conditioning of proboscis extension reflex)
Type: in vivo
Conditions: for change of conditioned responses in last conditioning trial vs vehicle (GLM coefficient ± standard error): ~200 nl into head haemolymph 1 h before conditioning; for effect on olfactory learning performance, in words: injected into the head before conditioning, range of concentrations, vs vehicle-injected controls, Fig 9
Method: For behavioral experiments, bees departing from the hive (mostly foragers) were chosen as they usually show good motivation and learning ability. Each cold-anesthetized animal was introduced into a metal holder and fixed to it in order to restrain all movements of the appendages apart from those of the antennae and proboscis. Each bee was then fed with 5 μl of a sucrose solution (50% w/w in water), and its median ocellus was removed to allow injection of allatostatin into the head capsule. All bees were then placed in a dark, warm (25°C) and humidified compartment for 3 hours, before the experiments began.
The vehicle for allatostatins was a saline solution made of PBS containing the protease blocker, 1 mM PMSF (prepared from a 30mM stock solution in 100% ethanol, final concentration of ethanol 3.3%).
The allatostatins were injected into the head haemolymph after penetrating the median ocellus, either 1 hour before olfactory conditioning or sucrose responsiveness assessment, or immediately after olfactory conditioning. All injections were performed under a binocular microscope. A micromanipulator-controlled Hamilton syringe (Nanofil, equipped with a NF33BV2 needle, WPI) was used to inject approximately 200 nl of peptide solution. To make sure that the solution was properly injected, it was pushed out of the syringe so that a drop was visible and then the drop was put in contact with the haemolymph where it was quickly absorbed thanks to the respiratory movements of the bee. Any bee with excessive bleeding was discarded.
Associative conditioning of the proboscis extension reflex was used to monitor effects of allatostatin treatment on appetitive olfactory learning performance. Olfactory stimuli were prepared shortly before conditioning by inserting a small piece of filter paper soaked with 4μl of pure odorant (from Sigma-Aldrich, Lyon, France) in one of the 8 channels of a custom-made, computer-driven olfactometer (P. Arrufat, Research Center on Animal Cognition, Toulouse, France). Immediately before conditioning, the integrity of the proboscis extension reflex was checked by touching both antennae with a 50% (w/w in water) sucrose solution. Olfactory conditioning of this reflexive response was carried out following a standard protocol consisting of three paired presentations of the odor (conditioned stimulus, CS) with 50% sucrose (the unconditioned stimulus, US) separated by a 10-min interval. Each trial included a familiarization phase in which the bee was placed in the conditioning set up for 13 s before forward pairing of the CS-US. The CS (1-nonanol) was delivered to the bee through an airflow for 4 s, and the US (sucrose solution) for 3 s, with a 1 s CS-US overlap. The US was presented by gently touching the antennae to elicit the PER; as soon as the bee extended its proboscis it was allowed to lick the toothpick. This sequence was controlled by the computer-driven olfactometer.
Functional data (receptor-mediated calcium, cAMP signals and binding) were plotted and regression curves were fitted using the GraphPad Prism software (San Diego, CA). The learning data were analyzed with generalized linear effects modeling (GLM) for binomial data using the R package lme4 [67]. Response levels recorded in the last conditioning trial were used to assess the effect of treatment on learning. For 1-hour memory and generalization tests, effects of allatostatin treatment were compared for each odor tested. Generalized linear mixed effects modeling (GLMM) was also used to analyze responsiveness to sucrose, with concentration and treatment as fixed factors and the bee identity and solution presented (either sucrose or water) as random factors. […] All statistics were generated in R [68].

[1] = 10^-6M, ASTA p<0.01, ASTC p<0.05, ASTCC p<0.001

| Compound | change of conditioned responses in last conditioning trial vs vehicle (GLM coefficient ± standard error) (10^-3M, ASTCC p<0.05) | change of conditioned responses in last conditioning trial vs vehicle (GLM coefficient ± standard error) (10^-4M, ASTA p<0.01, ASTCC p<0.01) | change of conditioned responses in last conditioning trial vs vehicle (GLM coefficient ± standard error) [1] | change of conditioned responses in last conditioning trial vs vehicle (GLM coefficient ± standard error) (10^-7M, ASTCC p<0.001) | effect on olfactory learning performance, in words | effect on olfactory learning performance, in words (listed as ASTCC) | change of conditioned responses in last conditioning trial vs vehicle (GLM coefficient ± standard error) (10^-5M, ASTA p<0.05, ASTC p<0.05) | effect on olfactory learning performance, in words (listed as ASTC) |
| --- | --- | --- | --- | --- | --- | --- | --- | --- |
| CC(C)[C@@H]1NC(=O)[C@H](C)NC(=O)[C@H](CC(N)=O)NC(=O)[C@H](Cc2ccccc2)NC(=O)[C@H](Cc2ccc(O)cc2)NC(=O)[C@@H](NC(=O)[C@H](CCCNC(=N)N)NC(=O)[C@H](Cc2c[nH]c3ccccc23)NC(=O)[C@H](Cc2ccc(O)cc2)NC(=O)[C@@H](NC(=O)[C@H](CCCNC(=N)N)NC(=O)CNC(=O)[C@H](CCCCN)NC(=O)[C@H](C)NC(=O)[C@H](CCC(N)=O)NC(=O)CN)C(C)C)CSSC[C@@H](C(=O)N[C@@H](Cc2ccccc2)C(=O)O)NC(=O)[C@H]([C@@H](C)O)NC1=O [Apime-ASTCC] (H-GQAKGRVYWRCYFNAVTCF-OH; disulfide 11-18; N-terminus assumed) | -1.04±0.45 | -1.35±0.44 | -1.75±0.43 | -1.59±0.44 | the effects of each peptide were dose-dependent | apparent at much lower doses than effects of ASTC; also recorded: significant, dose-dependent (yet not linear) decrease in the percentage of bees that learned | – | – |
| CC(C)[C@@H]1NC(=O)[C@H](C)NC(=O)[C@H](CC(N)=O)NC(=O)[C@H](Cc2ccccc2)NC(=O)[C@H](C)NC(=O)[C@@H](NC(=O)[C@H](CCC(N)=O)NC(=O)[C@H](CCCCN)NC(=O)[C@H](Cc2c[nH]c3ccccc23)NC(=O)[C@H](Cc2ccc(O)cc2)NC(=O)[C@@H](N)CO)CSSC[C@@H](C(=O)N[C@@H](Cc2ccccc2)C(N)=O)NC(=O)[C@H](CO)NC1=O [Apime-ASTC] (H-SYWKQCAFNAVSCF-NH2; disulfide 6-13; N-terminus assumed) | – | – | -0.91±0.41 | – | the effects of each peptide were dose-dependent | – | -0.84±0.42 | significant, dose-dependent (yet not linear) decrease in the percentage of bees that learned |
